Results published in article PMC8252719, “Macrocyclic FKBP51 Ligands Define a Transient Binding Mode with Enhanced Selectivity” (Angewandte Chemie (International Ed. in English), 2021).
Where two headings read alike, the source gives them in different places.

Legend:
[1] = system: phorbol/ionomycin-induced IL8 secretion in Jurkat cells; experiment: immunostimulation/suppression assay in Jurkat cells (IL8 secretion); format: cell-based, human; settings: IL8 ELISA; for effect on phorbol/ionomycin-induced IL8 secretion (compound on its own): 50 ng/ml PMA and 750 ng/ml Ionomycin, six hours
Description: Importantly, unlike the pan‐selective FKBP ligand [4.3.1]16h ^[21]
5.1 Immunostimulation/suppression assays in JURKAT cells
Figure S6A. Cellular analysis of compound FK[431]-16h in Jurkat cells
150 000 Jurkat cells were seeded in a 96 well plate in 180 µl and treated for 30 minutes with 13d or FK[431]-16h at the indicated […]
Cells were pelleted and supernatant collected and stored at -80°C. The IL8 content in the s upernatant was determined using the human IL8/CXCL8 DuoSet Elisa kit (RndSystems) according to manufacturers instructions . The sample volume of supernatant was adapted to 150 µl. Optical density wa s assessed using a Tecan Spark.
(§1) 5.2 IKKα inhibition in SIM-A9 cells
(§2) Cell culture and treatments
(§3) Murine microglia SIM-A9 cells were cultured at 37 °C, 5% CO2 in Dulbecco's Modified Eagle Medium (DMEM) high glucose with GlutaMAX (Thermo Fisher Scientific, 10566016), supplemented with 1 mM sodium pyruvate (Thermo Fisher Scientific, 11360-070), 10% fetal bovine serum (PAN Biotech, P30-8500), and 1% antibiotic-antimycotic (Thermo Fisher Scientific, 15240-062).
(§4) For the preparation of whole-cell lysates, confluent SIM-A9 cell cultures treated with the indicated compounds for 16 h in the above mentioned growth medium, were washed two times with ice-cold DPBS (Thermo Fisher Scientific, 14190-144) and lysed in an appropriate volume of RIPA buffer (Thermo Fisher Scientific, 89901), freshly supplemented with 1x cOmplete™ EDTA-free protease inhibitor cocktail (Roche, 4693132001) and 1x PhosSTOP™ phosphatase inhibitor cocktail (Roche, 4906837001) for 20 min on ice.
(§5) Subsequently, samples were centrifuged for 10 min at 4°C at 13000 rpm. The resulting supernatants were transferred to new 1.5 ml reaction tubes and prepared for separation with an SDS-PAGE system and analyzed by immunoblotting.
(§6) SDS-PAGE and immunoblotting
Separation of proteins was performed with the Criterion™ Vertical Electrophoresis Cell System (Bio-Rad, 1656001) on 4–20% Criterion™ TGX™ Precast Midi Protein Gels (Bio-Rad, 5671095). […]

[2] = system: IKKα phosphorylation in SIM-A9 cells; experiment: IKKα inhibition in SIM-A9 cells (Western blot); format: cell-based, murine
Description: We next explored if the macrocyclic ligands could interfere with the cellular functions of FKBP51. We therefore treated SIM‐A9 cells, which were recently discovered as a SAFit‐sensitive cellular model for stress‐mediated secretory autophagy. ^[24] […] (Figure 2 F and S6C). […]
as §1, §2, §3, §4, §5, §6
Separation of proteins was performed with the Criterion™ Vertical Electrophoresis Cell System (Bio-Rad, 1656001) on 4–20% Criterion™ TGX™ Precast Midi Protein Gels (Bio-Rad, 5671095). Immunoblotting was performed with the Trans-Blot Turbo Transfer System (Bio-Rad, 1704150) on 0.2 µm PVDF Trans-Blot Turbo Transfer Membranes (Bio-Rad, 1704157). For immunodetection, membranes were placed in TBS, supplemented with 0.05% Tween (Sigma-Aldrich, P9416) and 5% non-fat milk (Carl Roth, T145.1) for 1 h at RT and then incubated with the primary antibody diluted in TBS-T overnight at 4°C. Following primary antibodies were used:
Phospho-IKKα S176/phospho-IKKβ S177 (1:1000, Cell Signaling Technology, 2078), IKKα (1:1000, Cell Signaling Technology, 1682) and GAPDH (1:1000, Cell Signaling Techology, 5174).
Then, immunoblots were washed and probed with horseradish peroxidase- conjugated secondary antibody (1:10000, Cell Signaling Technology, 7074) for 1 h at RT. Immunoreactive protein bands were visualized using Clarity Western ECL Substrate (Bio-Rad, 1705061) or Clarity Max Western ECL Substrate (Bio-Rad, 1705062). Determination of the band intensities was performed with […]

FKBP12.6 = FKBP12.6 (Homo sapiens, UniProt P68106); experiment: competitive fluorescence polarization assay, FKBP12.6; format: binding; settings: for binding to FKBP12.6 (in words): fluorescence polarization assay
FKBP12 = FKBP12 (Homo sapiens, UniProt P62942); experiment: competitive fluorescence polarization assay, FKBP12; format: binding; settings: for binding to FKBP12 (in words): fluorescence polarization assay
FKBP51FK1 [3] = target: T1, FKBP51FK1 (Homo sapiens, UniProt Q13451); experiment: isothermal titration calorimetry (ITC); format: binding
T1 sequence (Q13451 42-130 limits assumed): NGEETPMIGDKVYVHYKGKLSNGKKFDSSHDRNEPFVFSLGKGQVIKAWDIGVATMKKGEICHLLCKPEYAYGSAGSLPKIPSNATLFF
Description: 1. ITC of compounds 13a and 13d
Figure S1. A) Binding of compound 13a to FKBP51FK1 determined by isothermal titration calorimetry at 25 °C. A 20 µM solution FKBP51FK1 formulated in 20 mM
HEPES pH 8.0, 20 mM NaCl, 5% glycerol and 2% DMSO was placed in the sample cell of a PEAK-ITC instrument. The syringe was filled with a 200 µM solution of
13a formulated in the same buffer. After equilibration the compound was titrated into the sample cell by 12 injection s of 3 µl each. The obtained data was analyzed
Binding of compound 13d to FKBP51FK1 determined by isothermal titration calorimetry at 25 °C. A 13 µM solution FKBP51FK1 formulated in 20 mM HEPES pH
8.0, 20 mM NaCl, 5% glycerol and 2% DMSO was placed in the sample cell of a PEAK -ITC instrument. The syringe was filled with a 10 0 µM solution of 13d
formulated in the same buffer. After equilibration the compound was titrated into the sample cell by 12 injections of 3 µl each. The obtained data was analyzed using […]

FKBP51FK1 [4] = target: T1, FKBP51FK1; experiment: competitive fluorescence polarization assay, FKBP51FK1; format: binding
Description: Table S1. Ki values were determined by a competitive fluoresc ence polarization assay.
4.1 Binding curves of 13a, c and d […]

FKBP51FK1 [5] = target: T1, FKBP51FK1; settings: values derived from literature; read-out: FKBP51FK1 K i; cited from earlier work
Text: Table 1 Affinities of the macrocycles with amino acid containing linker determined by a competitive fluorescence polarization assay. | column: FKBP51FK1 / K i [μM]^[a]

FKBP52FK1 = target: T2, FKBP52FK1 (Homo sapiens, UniProt Q02790); experiment: competitive fluorescence polarization assay, FKBP52FK1; format: binding; settings: Table 1 compounds tested up to 80 μM
T2 sequence (Q02790 50-138 limits assumed): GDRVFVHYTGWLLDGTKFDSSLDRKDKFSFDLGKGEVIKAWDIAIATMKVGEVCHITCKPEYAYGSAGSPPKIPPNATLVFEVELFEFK

[6] = meta B ring substituent R6, read-out: FKBP51 Ki (Table S1)

Chain of FKBP12 (P62942 whole entry): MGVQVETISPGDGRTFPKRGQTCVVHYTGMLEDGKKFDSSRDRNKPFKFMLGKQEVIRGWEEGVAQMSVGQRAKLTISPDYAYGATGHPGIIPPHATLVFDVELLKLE
Chain of FKBP12.6 (P68106 whole entry): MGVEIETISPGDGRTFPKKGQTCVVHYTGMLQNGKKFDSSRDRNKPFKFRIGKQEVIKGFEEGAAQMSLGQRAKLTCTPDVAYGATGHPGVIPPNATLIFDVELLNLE

Compound | effect on phorbol/ionomycin-induced IL8 secretion (compound on its own) [1] | effect on the immunosuppressive activity of FK506 ([1]; 30 minutes pretreatment, then 0.2 nM FK506, PMA/Ionomycin) | concentration at which apparent maximal inhibition of IKKα phosphorylation was already reached ([2]; SIM-A9 cells, lowest tested concentration) | inhibition of IKKα phosphorylation (in words) ([2]; murine microglia SIM-A9 cells, 16 h treatment, Western blot, three (macrocycles) or six (SAFit) independent cellular assays) | Ki (FKBP12.6; competitive fluorescence polarization assay, >80 μM = highest measurable concentration before compound precipitation, ± = standard error from three independent measurements, read-out: FKBP12.6 K i) | Ki (FKBP12; competitive fluorescence polarization assay, >80 μM = highest measurable concentration before compound precipitation, ± = standard error from three independent measurements, read-out: FKBP12 K i) | Kd (FKBP51FK1 [3]; 25 °C, 20 mM HEPES pH 8.0, 20 mM NaCl, 5% glycerol, 2% DMSO, one-site binding model, mean ± SD from 3 independent experiments, SD, read-out: Kd-value for FKBP51FK1 by ITC) | Kd (FKBP51FK1 [3]; isothermal calorimetry, enthalpy-driven, read-out: K d for FKBP51 by ITC) | Ki (FKBP51FK1 [4]; [6]) | Ki (FKBP51FK1 [4]; ± = standard error from three independent measurements [b] or error from two independent measurements [d], SEM, read-out: FKBP51FK1 K i) | Ki (FKBP51FK1 [5]) | binding to FKBP12.6 (in words) (FKBP12.6) | binding to FKBP12 (in words) (FKBP12) | binding to FKBP52FK1 (in words) (FKBP52FK1)
COc1ccc(CC[C@H]2OC(=O)[C@@H]3CCCCN3C(=O)[C@@H](C3CCCCC3)NC(=O)C3(CC3)NC(=O)COc3cccc2c3)cc1OC [13 d] | neither immunostimulatory nor immunosuppressive | did not block | ≤ 1 µM | inhibited | > 80000 nM | > 80000 nM | 600 ± 100 nM | 600 nM | 290 nM | 400 ± 50 nM | – | – | – | –
C=CC[C@@H]1/C=C(\C)C[C@H](C)C[C@H](OC)[C@H]2O[C@@](O)(C(=O)C(=O)N3CCCC[C@H]3C(=O)O[C@H](/C(C)=C/[C@@H]3CC[C@@H](O)[C@H](OC)C3)[C@H](C)[C@@H](O)CC1=O)[C@H](C)C[C@@H]2OC [FK506, reference compound] | blocks | – | – | – | – | – | – | – | – | – | 104 nM | – | – | –
COc1ccc(CC[C@H]2OC(=O)[C@@H]3CCCCN3C(=O)[C@@H](C3CCCCC3)NC(=O)C(C)(C)NC(=O)COc3cc(O)cc2c3)cc1OC [compound 25] | – | – | – | – | – | – | – | – | 370 nM | – | – | no binding | no binding | no binding
COc1cc2cc(c1)[C@@H](CCc1ccc(OC)c(OC)c1)OC(=O)[C@@H]1CCCCN1C(=O)[C@@H](C1CCCCC1)NC(=O)C(C)(C)NC(=O)CO2 [compound 26] | – | – | – | – | – | – | – | – | 390 nM | – | – | no binding | no binding | no binding
